Assay results published in EP4818189A1, “NITROGEN-CONTAINING HETEROCYCLIC COMPOUND, AND PREPARATION METHOD AND USE THEREFOR” (Chengdu Di'ao Pharmaceutical Group Co., Ltd., priority 2023, dated 2025).
Where a SMILES comes first, the peptide text is derived from it. [ ]: non-standard residue; d: D form. ξ: configuration not given here. ξAze = O=C(O)C1CCN1

Experiments:
CUMS model mice [1] = experiment: Forced swimming test in CUMS model mice, intravenous administration; type: in vivo, C57/B6 mice; conditions: single i.v. dose 100 mg/kg, test 2 hours later (FIG. 3)
Description: (§1) 6-8-week-old C57/B6 mice (purchased from: Jinan Pengyue Laboratory Animal Breeding Co., Ltd.) were used to establish a 28-day chronic unpredictable mild stress (CUMS) animal model, and an experimental procedure referred to document description^[1,2]. After one week of acclimatization, seven experiments, including food and water deprivation, foot shock, wet bedding, cage tilting, restraint stress, shaker stress, and olfactory stimulation, were randomly applied to the animals within one week to achieve unpredictability, and the stimulation was continued for 4 consecutive weeks. The successful establishment of the model was verified by an open field test (OFT)^[3], and then pharmacodynamic evaluation was carried out. The animals were divided into a blank control group (Control), a model group (Model), a vehicle control group (Vehicle), a fluoxetine control group and a compound group in the experiment. The test compound was intravenously (i.v.) administered once at a dose of 100 mg/kg, a tail suspension test (TST) and a forced swimming test (FST)^[4,5] were carried out 2 hours later to evaluate the depression of the mice, and prolonged immobility time in the TST and the FST indicated behavioral despair of the mice. After summary statistics of data, SPSS data statistics software was used for analysis, and Graph Pad software was used for graph generation based on SPSS analysis results.

[2] = Mouse pharmacokinetic detection; type: in vivo; conditions: CD1 mice; for AUC(0-t): oral gavage 10 mg/kg; for bioavailability: oral gavage 10 mg/kg vs intravenous 10 mg/kg
Experimental: The detection was carried out in 6-8-week-old CD1 mice (purchased from: Speifu (Beijing) Biotechnology Co., Ltd.). […] The concentration of the compound in a plasma sample was analyzed by LC-MS/MS. Pharmacokinetic calculation was carried out by using WinNonlin (Phoenix™, Version 8.3) or other similar software. The following pharmacokinetic parameters were calculated based on plasma concentration and time data: Oral administration: AUClast, bioavailability (F). Statistical calculation was carried out on the above parameter data. Table 3 Pharmacokinetic data of some compounds administered orally in mice

CUMS model mice [3] = experiment: Tail suspension test in CUMS model mice, intravenous administration; type: in vivo, C57/B6 mice; conditions: single i.v. dose 100 mg/kg, test 2 hours later (FIG. 4)
Description: as §1

CUMS model mice [4] = experiment: Tail suspension test in CUMS model mice, oral administration; type: in vivo, C57/B6 mice; conditions: single oral dose 25 mg/kg, test 2 hours later (FIG. 1, FIG. 2)
Description: as §1, with “fluoxetine control group, ZZL-7 experimental group and” for “fluoxetine control group and”, “compound was orally administered once” for “compound was intravenously (i.v.) administered once”, “dose of 25 mg/kg, a” for “dose of 100 mg/kg, a”, “suspension test (TST)^[4,5] was carried out” for “suspension test (TST) and a forced swimming test (FST)^[4,5] were carried out”, “the TST indicated behavioral” for “the TST and the FST indicated behavioral”

[5] = Permeability detection in MDR1-MDCK II cell monolayer; type: in vitro ADME; conditions: dog, pH 7.4, MDR1-MDCK II cells, 2 µM, 2.5 hours; for Papp A→B at 2.5 h, 2 µM: apical to basolateral; for Papp B→A at 2.5 h, 2 µM: basolateral to apical
Experimental: (§2) MDR1-MDCK II cells (imported from the Netherlands Cancer Institute) were seeded in a 96-well cell plate at a density of 3.33×10^5 cells/mL, and cultured in a carbon dioxide incubator for 4-7 days to form a cell monolayer. A Hank's balanced salt solution (HBSS, pH 7.40 ± 0.05) containing 10.0 mM 4-(2-hydroxyethyl)-1-piperazineethanesulfonic acid (HEPES) was used as a transport buffer. A DMSO stock solution of compound was diluted to 2 µM (DMSO < 1.0%) with the transport buffer, and added to the basolateral (B) side and apical (A) side respectively (N=2). The bidirectional (A-B and B-A) incubation concentration of Digoxin, a P-gp substrate, was 10 µM, and the unidirectional (A-B) incubateion concentrations of Nadolol, a low-permeability control, and Metoprolol, a high-permeability control, were 2 µM. The cell plate was incubated in a 5% CO2 cell incubator at 37°C and saturated humidity for 2.5 hours, then final samples from a receiver side and a donor side were collected, added with the transport buffer and a precipitant at an appropriate ratio, and analyzed by LC-MS/MS, and an apparent permeability coefficient, an efflux ratio and a solution recovery were calculated.
(§3) After the transport experiment was completed, an integrity of the MDR1-MDCK II cell layer was detected by a lucifer yellow detection experiment. Residual solution in apical and basolateral wells was removed, and 75 µL of transport buffer containing 100 µM lucifer yellow was added to the apical wells and 250 µL of transport buffer was added to the basolateral wells respectively. The cell plate was incubated in a 5% CO2 cell incubator at 37 °C and saturated humidity for 30 minutes, then 20 µL of sample was taken from the apical side and mixed with 60 µL of transport buffer and 80 µL of sample was taken from the basolateral side. A relative fluorescence intensity was detected by a microplate reader at excitation/emission wavelengths of 425/528 nm, and the permeability of Lucifer Yellow was calculated.
(§4) The apparent permeability coefficient (Papp), efflux ratio (ER) and %solution recovery were respectively calculated by following formulas: Papp = (VR)/(Area × Time) × ([drug]receiver)/([drug]initial,donor) = (VR)/(Area × Time) × (CR)/(C0) [formula] Efflux Ratio = (Papp (B−A))/(Papp (A−B)) [formula] %Solution Recovery = (CR × VR + CD × VD)/(C0 × VD) × 100 [formula]
(§5) VR was the volume of solution in the receiver side (0.075 mL for the apical side and 0.25 mL for the basolateral side respectively), VD was the volume of solution in the donor side (0.075 mL for the apical side and 0.25 mL for the basolateral side respectively), CR was the peak area ratio of compound in the receiver side, CD was the peak area ratio of compound in the donor side, C0 was the initial peak area ratio of compound in the donor side, Area was the surface area (0.143 cm^2) of the cell monolayer, and Time was incubation time of 9000 seconds (150 minutes). Papp(B-A) and Papp(A-B) respectively referred to the apparent permeability coefficient from the basolateral side to the apical side and the apparent permeability coefficient from the apical side to the basolateral side.
(§6) The permeability of Lucifer Yellow(%Lucifer Yellow) was calculated by the following formula: %Lucifer Yellow = (VBasolateral × RFUBasolateral)/(VApical × RFUApical + VBasolateral × RFUBasolateral) × 100 [formula]
(§7) RFUApical and RFUBasolareral respectively referred to relative fluorescence intensities of lucifer yellow in the apical side and the basolateral side. VApical and VBasolateral respectively referred to loading volumes (0.075 mL and 0.25 mL respectively) in the apical side and the basolateral side. Table 2 Permeability data of some compounds

MDR1-MDCK II cells = experiment: as above; type: in vitro ADME; conditions: permeability rank
Experimental: as §2, §3, §4, §5, §6, §7

[6] = Rat pharmacokinetic detection; type: in vivo; conditions: plasma, male SD rats
Experimental: The detection was carried out in 6-8-week-old male SD rats (purchased from:SPF (Beijing) Biotechnology Co., Ltd.). A test compound was dissolved in a solution containing 10% DMSO, 15% Solutol HS and 75% (aqueous solution of 10% hydroxypropyl-β-cyclodextrin), and administered via intravenous injection (10 mg/kg) or oral gavage (15 mg/kg). A concentration of the compound in a plasma sample was analyzed by LC-MS/MS. Pharmacokinetic calculation was carried out by using WinNonlin (Phoenix™, Version 8.3). The following pharmacokinetic parameters were calculated based on plasma concentration and time data: Oral administration: AUClast, bioavailability (F). Statistical calculation was carried out on the above parameter data. Table 4 Pharmacokinetic data of some compounds administered orally in rats

[7] = Plasma stability determination; type: in vitro ADME; conditions: mouse
Experimental: Mouse plasma (purchased from IPHASE, Batch No. 23B007) was thawed in a 37°C water bath, centrifuged to remove an upper clot, and the pH value was recorded as 7-8. An appropriate volume of stock solution of test compound in acetonitrile (at a concentration of 10 mM) was diluted with acetonitrile to 1 mM, so as to serve as a test drug solution. An appropriate volume of test drug solution was added to a corresponding volume of plasma and mixed uniformly, such that the concentration of the test compound in the incubation system was 5 µM, and the content of the organic solvent acetonitrile was 0.5%. 50 µL of mixed plasma was transferred into a 96-well plate (N=2), incubated at 37°C in a water bath for a designated time, and then added with 300 µL of internal standard-containing methanol solution to terminate the reaction. The reaction mixture was vortexed and centrifuged, and the supernatant was subjected to LC-MS/MS analysis. Propantheline and ZZL-7 were used as positive controls, and processed and tested under the same conditions as the test compound. A curve was plotted with the remaining percentage of the compound against incubation time to obtain a k value, and the half-life of each compound was calculated.

**Q.** Which results are given for `COC(=O)[C@@H](NC(=O)c1ccc[nH]1)C(C)C` [A-1-7]?
**A.** immobility time in the forced swimming test (CUMS model mice [1]): rapidly reverse the prolonged immobility time; AUC(0-t) ([2]; in vivo): 154 ng·h/mL; bioavailability ([2]; in vivo): 27.3%; immobility time in the tail suspension test (CUMS model mice [3]): rapidly reverse the prolonged immobility time

**Q.** With `COC(=O)[C@@H](NC(=O)C1CCN1C(C)=O)C(C)C` (some centres unmarked) [A-2-1] (Ac-[ξAze]-Val-OMe) as the compound, how does the “immobility time in the forced swimming test” value (CUMS model mice [1]) read?
**A.** rapidly reverse the prolonged immobility time

**Q.** What about the AUC(0-t) ([2]; plasma) of the same compound?
**A.** 3130 ng·h/mL

**Q.** What about the bioavailability ([2]; plasma) of the same compound?
**A.** 156%

**Q.** What about the “immobility time in the tail suspension test” value (CUMS model mice [3]) of the same compound?
**A.** rapidly reverse the prolonged immobility time

**Q.** Which results are given for `[2H]C([2H])([2H])C(=O)N1CC[C@@H]1C(=O)N[C@H](c1ncco1)C(C)C` [B-2-3]?
**A.** immobility time in the tail suspension test (CUMS model mice [4]): rapidly reverse the prolonged immobility time; AUC(0-t) ([2]; plasma): 10900 ng·h/mL; bioavailability ([2]; plasma): 159%; Papp A→B at 2.5 h, 2 µM [5]: 2.42 ×10⁻⁶ cm/s; Papp B→A at 2.5 h, 2 µM [5]: 3.22 ×10⁻⁶ cm/s; Rank Papp (MDR1-MDCK II cells): Moderate; AUC(0-t) ([6]; oral gavage 15 mg/kg): 24300 ng·h/mL; bioavailability ([6]; oral gavage 15 mg/kg vs intravenous 10 mg/kg): 66%

**Q.** With `CC(=O)N1CC[C@@H]1C(=O)N[C@H](c1ncco1)C(C)C` [B-2-41] as the compound, how does the “immobility time in the tail suspension test” value (CUMS model mice [4]) read?
**A.** rapidly reverse the prolonged immobility time

**Q.** And the AUC(0-t) ([2]; plasma)?
**A.** 11600 ng·h/mL

**Q.** What about the bioavailability ([2]; plasma) of the same compound?
**A.** 90%

**Q.** And the Papp A→B at 2.5 h, 2 µM [5]?
**A.** 4.07 ×10⁻⁶ cm/s

**Q.** And the Papp B→A at 2.5 h, 2 µM [5]?
**A.** 5.61 ×10⁻⁶ cm/s

**Q.** And the “Rank Papp” value (MDR1-MDCK II cells)?
**A.** Moderate

**Q.** What about the half-life at 5 µM [7] of the same compound?
**A.** > 4.82 h
